In patent publication US20070010565A1, “New thiazolidinones without basic nitrogen, their production and use as pharmaceutical agents” (priority 2005, published 2007) one finds IC50 data, which are given here for 3 molecules.

For assay [1], the target named is T1, Recombinant human Plk-1 (6×His) (Homo sapiens, UniProt P53350).
T1 construct: 6xHis; made in house; host or cells: baculovirus-infected insect cells (Hi5)
Briefly: PLK enzyme assay. To be noted: biotinylated casein and 33P-γ-ATP substrate, 90 minutes at room temperature, SPA beads; read-out: PLK-1 IC50 [nM] Inhibition. In kind it is biochemical. The method, then:
Recombinant human Plk-1 (6×His) was purified from baculovirus-infected insect cells (Hi5).
10 ng of (produced in a recombinant manner and purified) PLK enzyme is incubated for 90 minutes at room temperature with biotinylated casein and 33P-γ-ATP as a substrate in a volume of 15 μl in 384-well Greiner small-volume microtiter plates (final concentrations in the buffer: 660 ng/ml of PLK; 0.7 μmol of casein, 0.5 μmol of ATP incl. 400 nCi/ml of 33P-γ-ATP; 10 mmol of MgCl2, 1 mmol of MnCI2; 0.01% NP40; 1 mmol of DTT, protease inhibitors; 0.1 mmol of Na2VO3 in 50 mmol of HEPES, pH 7.5). To complete the reaction, 5 μl of stop solution (500 μmol of ATP; 500 mmol of EDTA; 1% Triton X100; 100 mg/ml of streptavidin-coated SPA beads in PBS) is added. After the microtiter plate is sealed by film, the beads are sedimented by centrifuging (10 minutes, 1500 rpm). The incorporation of 33P-γ-ATP in casein is intended as a measurement of enzyme activity by β-counting.
Test substances are used in various concentrations (0 μmol, as well as in the range of 0.01-30 μmol). The final concentration of the solvent dimethyl sulfoxide is 1.5% in all batches.

In assay [2] the test system is human MaTu breast tumour cells. Nature of the assay: Proliferation assay (crystal violet). In kind it is cell-based. The settings on record: 96 h, 4 days incubation, read-out: Inhibition of the Tumour Cell Proliferation (MaTu) IC50. The method, then:
Cultivated human MaTu breast tumour cells were flattened out at a density of 5000 cells/measuring point in a 96-well multititer plate in 200 μl of the corresponding growth medium. After 24 hours, the cells of one plate (zero-point plate) were colored with crystal violet (see below), while the medium of the other plates was replaced by fresh culture medium (200 μl), to which the test substances were added at various concentrations (0 μm, as well as in the range of 0.01-30 μm; the final concentration of the solvent dimethyl sulfoxide was 0.5%). The cells were incubated for 4 days in the presence of test substances. The cell proliferation was determined by coloring the cells with crystal violet: the cells were fixed by adding 20 μl/measuring point of an 11% glutaric aldehyde solution for 15 minutes at room temperature. After three washing cycles of the fixed cells with water, the plates were dried at room temperature. The cells were colored by adding 100 μl/measuring point of a 0.1% crystal violet solution (pH was set at 3 by adding acetic acid). […] The extinction was determined by photometry at a wavelength of 595 nm. The change of cell growth, in percent, was calculated by standardization of the measured values to the extinction values of the zero-point plate (=0%) and the extinction of the untreated (0 μm) cells (=100%).

Each structure is given as a SMILES string. pIC50: −log10 of the molar value.

T1 sequence (P53350 whole entry): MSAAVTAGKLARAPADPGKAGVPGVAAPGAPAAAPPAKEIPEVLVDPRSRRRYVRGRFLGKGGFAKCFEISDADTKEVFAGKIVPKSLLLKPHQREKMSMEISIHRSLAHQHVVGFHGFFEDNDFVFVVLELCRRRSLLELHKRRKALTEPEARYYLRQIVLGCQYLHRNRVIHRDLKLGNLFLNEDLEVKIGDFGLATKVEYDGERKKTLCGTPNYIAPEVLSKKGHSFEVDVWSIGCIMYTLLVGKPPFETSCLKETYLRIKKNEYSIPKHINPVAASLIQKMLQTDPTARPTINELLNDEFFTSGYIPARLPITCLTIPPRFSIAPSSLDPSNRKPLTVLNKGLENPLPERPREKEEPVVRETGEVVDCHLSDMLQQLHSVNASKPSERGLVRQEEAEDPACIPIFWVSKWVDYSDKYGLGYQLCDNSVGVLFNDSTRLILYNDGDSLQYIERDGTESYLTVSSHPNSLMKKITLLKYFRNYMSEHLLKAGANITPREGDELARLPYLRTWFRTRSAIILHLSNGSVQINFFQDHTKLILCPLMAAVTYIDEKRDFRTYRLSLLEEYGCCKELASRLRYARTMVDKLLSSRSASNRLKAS

Regarding `CCNC(=O)/C(C#N)=c1\sc(=Cc2ccc(O)cc2)c(=O)n1CC` [Example 3], in assay [1], the concentration for half-maximal inhibition (IC50) came out at 230 nM.
Consider `C#CCNC(=O)/C(C#N)=c1\sc(=Cc2ccc(O)cc2)c(=O)n1CC` [Example 8], for which the half-maximal inhibitory concentration (IC50) in assay [1] worked out at 39 nM. Moreover, the pIC50 in assay [2] is 5.49.
As to `C#CCNC(=O)/C(C#N)=c1\sc(=Cc2ccc(N3CCCC3)cc2)c(=O)n1CC` [Example 10], the half-maximal inhibitory concentration (IC50) in assay [1] was 23 nM.

One may read the IC50 as the concentration that inhibits the measured activity by half.
